What was measured:
SCLC strain SHP-77 = assay: MTT assay for cell survival, SCLC SHP-77 in vitro; type: cell-based, human; settings: ED50 for killing of SCLC strain SHP-77 in vitro, 4 days, 0 = no detectable activity, read-out: SCLC SHP-77 IC50
PC3 PC cells = assay: Inhibition of PC3 tumor growth in vivo in nude mice; design: species or system athymic nude mice; key to PC3 In vivo % inhib.: an IC50 value of “0” represents no detectable anti-cancer activity for a drug in a given cell line; “Stim.” indicates the observation of a stimulatory activity on the growth of the cancer cell line; settings: percent inhibition of tumor growth in nude mice; prostate cancer; i.p. 5 mg/kg/every second day or 10 mg/kg/every fourth day
Description: Compounds having high in vitro cytotoxic activity were tested against implanted tumors in vivo. Athymic nude mice were implanted subcutaneously with suspensions (2 million SHP-77 SCLC cells, 1 million A549 NSCLC cells or 1.5 million PC3 PC cells) in Matrigel suspension. On the eighth day after tumor implantation groups of 5 mice bearing implants were injected intraperitoneally with the compounds being tested at 5 mg/kg/every second day or at 10 mg/kg/every fourth day; control animals were injected with an equal volume of isotonic saline. Less soluble compounds were initially dissolved in dimethyl sulfoxide (DMSO) and diluted with medium. In those cases the control injections contained the same concentration of DMSO. Tumor size was measured with a caliper three times per week. Tumor volume was calculated by the formula: Volume(cc)=3.14×(length)×(width)^2/6 At autopsy tumors were removed and weighed. Tumor inhibition was calculated on both weight and measurement basis. In each Table, an IC50 value of “0” represents no detectable anti-cancer activity for a drug in a given cell line and “Stim.” indicates the observation of a stimulatory activity on the growth of the cancer cell line.

SMILES	IC50 (SCLC strain SHP-77) [µM]	PC3 In vivo % inhib. (PC3 PC cells)
CCCCC/C=C\C/C=C\C/C=C\C/C=C\CCCC(=O)NC(Cc1ccc(OCc2c(Cl)cccc2Cl)cc1)C(=O)NC1CC(C)(C)NC(C)(C)C1 (stereo not drawn) [Analog M-1442, Arac-OC2Y-Atmp]	6.4	31%
CC1(C)CC(NC(=O)C(Cc2ccc(OCc3c(Cl)cccc3Cl)cc2)NC(=O)/C=C/c2cc(C(F)(F)F)cc(C(F)(F)F)c2)CC(C)(C)N1 (stereo not drawn) [Analog M-1444, Tf2c-OC2Y-Atmp]	1.4	11%
CC(C=CC1=C(C)CCCC1(C)C)=CC=CC(C)=CC(=O)NC(Cc1ccc(OCc2c(Cl)cccc2Cl)cc1)C(=O)NC1CC(C)(C)NC(C)(C)C1 (stereo not drawn) [Analog M-1446, Ret-OC2Y-Atmp]	6.7	60%
CC1(C)CC(NC(=O)C(Cc2ccc(OCc3c(Cl)cccc3Cl)cc2)NC(=O)CC2Cc3ccccc3C2)CC(C)(C)N1 (stereo not drawn) [Analog M-1448, 2Ina-OC2Y-Atmp]	13	11%
CC1(C)CC(NC(=O)C(Cc2ccc(OCc3c(Cl)cccc3Cl)cc2)NC(=O)c2ccccc2O)CC(C)(C)N1 (stereo not drawn) [Analog M-1450, 2Hyb-OC2Y-Atmp]	13	Stim.
CC1(C)CC(NC(=O)C(Cc2ccc(OCc3c(Cl)cccc3Cl)cc2)NC(=O)c2c(F)c(N)cc(F)c2F)CC(C)(C)N1 (stereo not drawn) [Analog M-1452, Atfb-OC2Y-Atmp]	7.2	Stim.
CC1(C)CC(NC(=O)C(Cc2ccc(OCc3c(Cl)cccc3Cl)cc2)NC(=O)C=Cc2ccc(C=O)cc2)CC(C)(C)N1 (stereo not drawn) [Analog M-1456, Fcin-OC2Y-Atmp]	4	17%
CC1(C)CC(NC(=O)C(Cc2ccc(OCc3c(Cl)cccc3Cl)cc2)NC(=O)c2ccc(S(N)(=O)=O)cc2)CC(C)(C)N1 (stereo not drawn) [Analog M-1458, Sab-OC2Y-Atmp]	> 60	Stim.
CC1(C)CC(NC(=O)C(Cc2ccc(OCc3c(Cl)cccc3Cl)cc2)NC(=O)C=Cc2ccc(B(O)O)cc2)CC(C)(C)N1 (stereo not drawn) [Analog M-1460, Bcin-OC2Y-Atmp]	23	38%
CC1(C)CC(NC(=O)C(Cc2ccc(OCc3c(Cl)cccc3Cl)cc2)NC(=O)C2CC(=O)NC(=O)N2)CC(C)(C)N1 (stereo not drawn) [Analog M-1462, Hor-OC2Y-Atmp]	> 60	7%
CC(C=CC1(O)C(C)=CC(=O)CC1(C)C)=CC(=O)NC(Cc1ccc(OCc2c(Cl)cccc2Cl)cc1)C(=O)NC1CC(C)(C)NC(C)(C)C1 (stereo not drawn) [Analog M-1464, Aba-OC2Y-Atmp]	14	14%
CC1(C)CC(NC(=O)C(Cc2ccc(C#N)cc2)NC(=O)CCCCC2SCC3NC(=O)NC32)CC(C)(C)N1 (stereo not drawn) [Analog M-1466, Biot-PCNF-Atmp]	> 60	29%
Cc1ccc(CSC(C)(C)C(NC(=O)CCCCC2SCC3NC(=O)NC32)C(=O)NC2CC(C)(C)NC(C)(C)C2)cc1 (stereo not drawn) [Analog M-1468, Biot-Pen(Mbzl)-Atmp]	> 60	46%
Cc1ccc(CSC(C)(C)C(NC(=O)CCCc2c[nH]c3ccccc23)C(=O)NC2CC(C)(C)NC(C)(C)C2)cc1 (stereo not drawn) [Analog M-1474, 3Ibu-Pen(Mbzl)-Atmp]	7.8	Stim.
CC1(C)CC(NC(=O)C(Cc2ccc(OCc3c(Cl)cccc3Cl)cc2)NC(=O)c2ccc(C(F)(F)F)cc2)CC(C)(C)N1 (stereo not drawn) [Analog M-1484, Ptmb-OC2Y-Atmp]	1.8	Stim.
Cc1ccc(CSC(C)(C)C(NC(=O)COc2c(F)c(F)c(F)c(F)c2F)C(=O)NC2CC(C)(C)NC(C)(C)C2)cc1 (stereo not drawn) [Analog M-1486, F5po-Pen(Mbzl)-Atmp]	4.2	21%
Cc1ccc(CSC(C)(C)C(NC(=O)C23CC4CC(CC(C4)C2)C3)C(=O)NC2CC(C)(C)NC(C)(C)C2)cc1 (stereo not drawn) [Analog M-1492, Aca-Pen(Mbzl)-Atmp]	3.4	15%
CC1(C)CC(NC(=O)C(Cc2ccc(OCc3c(Cl)cccc3Cl)cc2)NC(=O)C23CC4CC(CC(C4)C2)C3)CC(C)(C)N1 (stereo not drawn) [Analog M-1494, Aca-OC2Y-Atmp]	1.6	40%

SMILES	IC50 (SCLC strain SHP-77) [µM]	PC3 In vivo % inhib. (PC3 PC cells)
CC1(C)CC(NC(=O)[C@H](Cc2ccc(C#N)cc2)NC(=O)C23CC4CC(CC(C4)C2)C3)CC(C)(C)N1 [Analog M-1496, Aca-PCNF-Atmp]	> 60	2%
Cc1ccc(CSC(C)(C)C(NC(=O)CCCc2ccc(N(CCCl)CCCl)cc2)C(=O)NC2CC(C)(C)NC(C)(C)C2)cc1 (stereo not drawn) [Analog M-1498, Chl-Pen(Mbzl)-Atmp]	3.5	20%
Cc1ccc(CSC(C)(C)C(NC(=O)C=Cc2cc(F)cc(F)c2F)C(=O)NC2CC(C)(C)NC(C)(C)C2)cc1 (stereo not drawn) [Analog M-1502, F3c-Pen(Mbzl)-Atmp]	3.4	11%
COc1ccc2cc(C(C)C(=O)NC(C(=O)NC3CC(C)(C)NC(C)(C)C3)C(C)(C)SCc3ccc(C)cc3)ccc2c1 (stereo not drawn) [Analog M-1506, Napr-Pen(Mbzl)-Atmp]	4.7	13%
COc1ccc2cc(C(C)C(=O)NC(Cc3ccc(C#N)cc3)C(=O)NC3CC(C)(C)NC(C)(C)C3)ccc2c1 (stereo not drawn) [Analog M-1508, Napr-PCNF-Atmp]	23	45%
Cc1ccc(CSC(C)(C)C(NC(=O)C(C)(c2ccccc2)c2ccccc2)C(=O)NC2CC(C)(C)NC(C)(C)C2)cc1 (stereo not drawn) [Analog M-1510, 22Dp-Pen(Mbzl)-Atmp]	4.2	Stim.
CC1(C)CC(NC(=O)[C@H](Cc2ccc(C#N)cc2)NC(=O)C(C)(c2ccccc2)c2ccccc2)CC(C)(C)N1 [Analog M-1512, 22Dp-PCNF-Atmp]	22	48%
COc1ccc2c(c1)c(CC(=O)NC(C(=O)NC1CC(C)(C)NC(C)(C)C1)C(C)(C)SCc1ccc(C)cc1)c(C)n2C(=O)c1ccc(Cl)cc1 (stereo not drawn) [Analog M-1518, Indo-Pen(Mbzl)-Atmp]	6	Stim.
COc1ccc2c(c1)c(CC(=O)N[C@@H](Cc1ccc(C#N)cc1)C(=O)NC1CC(C)(C)NC(C)(C)C1)c(C)n2C(=O)c1ccc(Cl)cc1 [Analog M-1520, Indo-PCNF-Atmp]	13	Stim.
Cc1ccc(CSC(C)(C)C(NC(=O)c2cnccn2)C(=O)NC2CC(C)(C)NC(C)(C)C2)cc1 (stereo not drawn) [Analog M-1522, 2Pyz-Pen(Mbzl)-Atmp]	31	Stim.
CC1(C)CC(NC(=O)C(Cc2ccc(OCc3c(Cl)cccc3Cl)cc2)NS(=O)(=O)c2ccc(OC(F)(F)F)cc2)CC(C)(C)N1 (stereo not drawn) [Analog M-1536, 4Tmbs-OC2Y-Atmp]	3.2	Stim.
CC1(C)CC(NC(=O)C(Cc2ccc(OCc3c(Cl)cccc3Cl)cc2)NC(=O)c2ccc(OC(F)(F)F)cc2)CC(C)(C)N1 (stereo not drawn) [Analog M-1538, 4Tfmb-OC2Y-Atmp]	1.8	Stim.
CC1(C)CC(NC(=O)C(Cc2ccc(OCc3c(Cl)cccc3Cl)cc2)NC(=O)c2ccc(-c3ccccc3)cc2)CC(C)(C)N1 (stereo not drawn) [Analog M-1542, 4Bpc-OC2Y-Atmp]	6.4	Stim.
O=C(C=Cc1c(F)c(F)c(F)c(F)c1F)NC(Cc1ccc(OCc2c(Cl)cccc2Cl)cc1)C(=O)NC1CN2CCC1CC2 [Analog M-1544, F5c-OC2Y-(R)-Aqu]	6	28%
O=C(C=Cc1c(F)c(F)c(F)c(F)c1F)NC(Cc1ccc(OCc2c(Cl)cccc2Cl)cc1)C(=O)NC1CN2CCC1CC2 [Analog M-1546, F5c-OC2Y-(S)-Aqu]	1.8	29%
O=C(C=Cc1c(F)c(F)c(F)c(F)c1F)NC(Cc1ccc(OCc2c(Cl)cccc2Cl)cc1)C(=O)NC1CCN(Cc2ccccc2)CC1 (stereo not drawn) [Analog M-1552, F5c-OC2Y-Abzp]	13	52%
O=C(C=Cc1c(F)c(F)c(F)c(F)c1F)NC(Cc1ccc(OCc2c(Cl)cccc2Cl)cc1)C(=O)N1CCN(c2ncccn2)CC1 (stereo not drawn) [Analog M-1554, F5c-OC2Y-Pmpz]	6.8	Stim.
CC1CN(C(=O)C(Cc2ccc(OCc3c(Cl)cccc3Cl)cc2)NC(=O)C=Cc2c(F)c(F)c(F)c(F)c2F)CC(C)N1Cc1ccccc1 (stereo not drawn) [Analog M-1556, F5c-OC2Y-cDmbp]	18	59%

From US7858349B2, “Anti-cancer compounds” (The Regents of the University of Colorado, priority 1999, dated 2010)
